The test system of this assay is NBD1/3D. The assay is described as follows: Aggregation analysis using differential static light scattering (DSLS), NBD1 thermal stability. As to conditions: ΔTagg versus DMSO control; compound at 100 μM. It counts as binding, Human. The method, boiled down: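 Thermal stabilisation reported as ΔTagg, i.e. aggregation temperature relative to averaged DMSO wells. Tagg came from the inflection of differential static light scattering imaged 25–70 °C while NBD1 (0.2 mg/ml, Tris pH 7.6 buffer containing ATP, MgCl2, DTT, glycerol) was ramped 1 °C/min.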
For the compound `CC(Cc1cccc(C(C)c2cnc(-c3cc(Oc4c(F)cc5[nH]ccc5c4F)ccc3F)[nH]2)c1F)C(=O)O` (single isomer, unassigned) [Example 137A, 3-(3-(1-(2-(5-((4,6-difluoro-1H-indol-5-yl)oxy)-2-fluorophenyl)-1H-imidazol-5-yl)ethyl)-2-fluorophenyl)-2-methylpropanoic acid], the “DSLS NBD1/3D Human Stability delta-T (° C.) @ 100 (μM)” value (shortened to “DSLS NBD1/3D Human Stability delta-T”) is “B (B: 5-10° C.)”.
For `Cc1c(Oc2ccc(F)c(-c3nnc(Cc4cccc(N5CC(C(=O)O)C5)c4)[nH]3)c2)c(F)cc2[nH]ccc12` [Example 249, 1-(3-((5-(2-Fluoro-5-((6-fluoro-4-methyl-1H-indol-5-yl)oxy)phenyl)-4H-1,2,4-triazol-3-yl)methyl)phenyl)azetidine-3-carboxylic acid] the value was “C (C: ≤5° C.)”.
The same measure for `Cc1c(Oc2ccc(F)c(-c3ncc(Cc4cc(F)cc(CCC(=O)O)c4)[nH]3)c2)c(F)c(F)c2[nH]ccc12` [Example 105, 3-(3-((2-(5-((6,7-difluoro-4-methyl-1H-indol-5-yl)oxy)-2-fluorophenyl)-1H-imidazol-5-yl)methyl)-5-fluorophenyl)propanoic acid]: “B (B: 5-10° C.)”; for `CS(=O)(=O)c1c(Oc2ccc(F)c(-c3ncc(C4(c5cccc(CCC(=O)O)c5)CC(F)(F)C4)[nH]3)c2)c(F)cc2[nH]ccc12` [Example 78, 3-(3-(3,3-Difluoro-1-(2-(2-fluoro-5-((6-fluoro-4-(methylsulfonyl)-1H-indol-5-yl)oxy)phenyl)-1H-imidazol-5-yl)cyclobutyl)phenyl)propanoic acid]: “A (A: T ≥ 10° C.)”; for `Cc1c(Oc2ccc(F)c(-c3nc(C4(c5cccc(CCC(=O)O)c5)OCCO4)c[nH]3)c2)c(F)cc2[nH]ccc12` [Example 232, 3-(3-(2-(2-(2-fluoro-5-((6-fluoro-4-methyl-1H-indol-5-yl)oxy)phenyl)-1H-imidazol-4-yl)-1,3-dioxolan-2-yl)phenyl)propanoic acid]: “B (B: 5-10° C.)”.
Take `Cc1c(Oc2ccc(F)c(-c3ncc(C(C)(O)c4cccc(CC(F)C(=O)O)c4)[nH]3)c2)c(F)cc2[nH]ccc12` (centres unmarked) [Example 199, 2-fluoro-3-(3-(1-(2-(2-fluoro-5-((6-fluoro-4-methyl-1H-indol-5-yl)oxy)phenyl)-1H-imidazol-5-yl)-1-hydroxyethyl)phenyl) propanoic acid]: the “DSLS NBD1/3D Human Stability delta-T” value was “A (A: T ≥ 10° C.)”.
Take `CC(C)(c1cnc(-c2cc(Oc3c(F)c(F)c4[nH]ccc4c3F)ccc2F)[nH]1)c1cccc(CCC(=O)O)c1F` [Example 157, 3-(2-fluoro-3-(2-(2-(2-fluoro-5-((4,6,7-trifluoro-1H-indol-5-yl)oxy)phenyl)-1H-imidazol-5-yl)propan-2-yl)phenyl)propanoic acid]: the “DSLS NBD1/3D Human Stability delta-T” value is listed as “B (B: 5-10° C.)”.
For `O=C(O)CCc1cccc(C2(c3cnc(-c4cc(Oc5c(F)cc6[nH]ccc6c5F)ccc4F)[nH]3)CCOC2)c1` (centres unmarked) [Example 150, 3-(3-(3-(2-(5-((4,6-difluoro-1H-indol-5-yl)oxy)-2-fluorophenyl)-1H-imidazol-5-yl)tetrahydrofuran-3-yl)phenyl)propanoic acid] the value was “A (A: T ≥ 10° C.)”.
The same measure for `CCS(=O)(=O)c1c(Oc2ccc(F)c(-c3ncc(C(C)(O)c4cccc(CCC(=O)O)c4)[nH]3)c2)c(F)cc2[nH]ccc12` (centres unmarked) [Example 27, 3-(3-(1-(2-(5-((4-(ethylsulfonyl)-6-fluoro-1H-indol-5-yl)oxy)-2-fluorophenyl)-1H-imidazol-5-yl)-1-hydroxyethyl)phenyl)propanoic acid]: “B (B: 5-10° C.)”; for `c1cc(CCCCc2nnn[nH]2)cc(Cc2nnc(-c3cccc(Oc4ccc5[nH]ccc5c4)c3)[nH]2)c1` [Example 260, 5-(3-(5-(3-(4-(1H-Tetrazol-5-yl)butyl)benzyl)-4H-1,2,4-triazol-3-yl)phenoxy)-1H-indole]: “C (C: ≤5° C.)”; for `O=C(O)CCc1cccc(C(O)c2cnc(-c3cccc(Oc4c(F)cc5[nH]ccc5c4-c4nccs4)c3)[nH]2)c1` (centres unmarked) [Example 87, 3-(3-((2-(3-((6-Fluoro-4-(thiazol-2-yl)-1H-indol-5-yl)oxy)phenyl)-1H-imidazol-5-yl)(hydroxy)methyl)phenyl)propanoic acid]: “B (B: 5-10° C.)”.
Turning to `CC(O)(c1cccc(CCC(=O)O)c1)c1cnc(-c2cc(Oc3cc(F)c4[nH]ccc4c3F)ccc2F)[nH]1` (centres unmarked) [Example 197, 3-(3-(1-(2-(5-((4,7-difluoro-1H-indol-5-yl)oxy)-2-fluorophenyl)-1H-imidazol-5-yl)-1-hydroxyethyl)phenyl) propanoic acid], the “DSLS NBD1/3D Human Stability delta-T” value is on record as “B (B: 5-10° C.)”.
For `O=C(O)CCCCC#Cc1ccc(Cc2nnc(-c3cccc(Oc4ccc5[nH]ccc5c4)c3)[nH]2)cc1` [Example 253, 7-(4-((5-(3-((1H-Indol-5-yl)oxy)phenyl)-4H-1,2,4-triazol-3-yl)methyl)phenyl)hept-6-ynoic acid] the value was “C (C: ≤5° C.)”; for `CS(=O)(=O)c1c(Oc2ccc(F)c(-c3nc(C4(c5cccc(CCC(=O)O)c5)CCCC4)c[nH]3)c2)c(F)cc2[nH]ccc12` [Example 47, 3-(3-(1-(2-(2-fluoro-5-((6-fluoro-4-(methylsulfonyl)-1H-indol-5-yl)oxy)phenyl)-1H-imidazol-5-yl)cyclopentyl)phenyl)propanoic acid], “A (A: T ≥ 10° C.)”.
For `CS(=O)(=O)c1c(Oc2ccc(F)c(-c3ncc(Cc4cccc(CCC(=O)O)c4)[nH]3)c2)c(F)cc2[nH]ccc12` [Example 22, 3-(3-((2-(2-Fluoro-5-((6-fluoro-4-(methylsulfonyl)-1H-indol-5-yl)oxy)phenyl)-1H-imidazol-5-yl)methyl)phenyl)propanoic acid] the value was “A (A: T ≥ 10° C.)”.
On to `Cc1c(Oc2cccc(-c3ccn(Cc4cccc(CC(=O)O)c4)n3)c2)ccc2[nH]ccc12` [Example 5, 2-(3-((3-(3-((4-methyl-1H-indol-5-yl)oxy)phenyl)-1H-pyrazol-1-yl)methyl)phenyl)acetic acid], for which the “DSLS NBD1/3D Human Stability delta-T” value was “B (B: 5-10° C.)”.
For `NC(=O)CCc1cccc(Cc2c[nH]c(-c3cc(Oc4c(F)cc5[nH]ccc5c4F)ccc3F)n2)c1` [Example 127, 3-(3-((2-(5-((4,6-Difluoro-1H-indol-5-yl)oxy)-2-fluorophenyl)-1H-imidazol-4-yl)methyl)phenyl)propanamide] the value was “C (C: ≤5° C.)”; for `CNC(=O)c1c(Oc2cccc(-c3ccn(Cc4cccc(CCC(=O)O)c4)n3)c2)ccc2[nH]ccc12` [Example 16, 3-(3-((3-(3-((4-(Methylcarbamoyl)-1H-indol-5-yl)oxy)phenyl)-1H-pyrazol-1-yl)methyl)phenyl)propanoic acid], “B (B: 5-10° C.)”; for `CC(O)(c1cccc(CCC(N)=O)c1)c1cnc(-c2cc(Oc3c(F)cc4[nH]ccc4c3S(C)(=O)=O)ccc2F)[nH]1` (centres unmarked) [Example 30, 3-(3-(1-(2-(2-Fluoro-5-((6-fluoro-4-(methylsulfonyl)-1H-indol-5-yl)oxy)phenyl)-1H-imidazol-5-yl)-1-hydroxyethyl)phenyl)propanamide], “B (B: 5-10° C.)”.
On to `Cc1c(Oc2ccc(F)c(-c3nnc(Cc4cccc(C5(F)CC(C(=O)O)C5)c4)[nH]3)c2)c(F)cc2[nH]ccc12` (centres unmarked) [Example 248, 3-Fluoro-3-(3-((5-(2-fluoro-5-((6-fluoro-4-methyl-1H-indol-5-yl)oxy)phenyl)-4H-1,2,4-triazol-3-yl)methyl)phenyl)cyclobutane-1-carboxylic acid], for which the “DSLS NBD1/3D Human Stability delta-T” value was “C (C: ≤5° C.)”.
For `Cc1c(Oc2cnc(F)c(-c3ncc(C(C)(O)c4cccc(CCC(=O)O)c4)[nH]3)c2)c(F)cc2[nH]ccc12` (centres unmarked) [Example 207, 3-(3-(1-(2-(2-fluoro-5-((6-fluoro-4-methyl-1H-indol-5-yl)oxy)pyridin-3-yl)-1H-imidazol-5-yl)-1-hydroxyethyl)phenyl) propanoic acid] the value was “B (B: 5-10° C.)”; for `CS(=O)(=O)c1c(Oc2cccc(-c3ncn(Cc4cccc(CCC(N)=O)c4)n3)c2)c(F)cc2[nH]ccc12` [Example 34, 3-(3-((3-(3-((6-Fluoro-4-(methylsulfonyl)-1H-indol-5-yl)oxy)phenyl)-1H-1,2,4-triazol-1-yl)methyl)phenyl)propanamide], “B (B: 5-10° C.)”; for `O=C(O)CCCCCc1cccc(Cc2nnc(-c3cccc(Oc4ccc5[nH]ccc5c4)c3)[nH]2)c1` [Example 255, 6-(3-((5-(3-((1H-indol-5-yl)oxy)phenyl)-4H-1,2,4-triazol-3-yl)methyl)phenyl)hexanoic acid], “C (C: ≤5° C.)”.
The same measure for `CC(O)(c1cccc(CCC(=O)O)c1)c1c[nH]c(-c2cc(Oc3c(F)cc4[nH]ccc4c3S(C)(=N)=O)ccc2F)n1` (centres unmarked) [Example 203, 3-(3-(1-(2-(2-fluoro-5-((6-fluoro-4-(S-methylsulfonimidoyl)-1H-indol-5-yl)oxy)phenyl)-1H-imidazol-4-yl)-1-hydroxyethyl)phenyl) propanoic acid]: “A (A: T ≥ 10° C.)”; for `COC(=O)C(F)Cc1cccc(C(O)c2cnc(-c3cccc(Oc4ccc5[nH]ccc5c4C)c3)[nH]2)c1` (centres unmarked) [Example 173, Methyl 2-fluoro-3-(3-(hydroxy(2-(3-((4-methyl-1H-indol-5-yl)oxy)phenyl)-1H-imidazol-5-yl)methyl)phenyl)propanoate]: “B (B: 5-10° C.)”; for `COP(=O)(Cc1cccc(Cn2ccc(-c3cccc(Oc4ccc5[nH]ccc5c4CO)c3)n2)c1)OC` [Example 12, dimethyl (3-((3-(3-((4-(hydroxymethyl)-1H-indol-5-yl)oxy)phenyl)-1H-pyrazol-1-yl)methyl)benzyl)phosphonate]: “C (C: ≤5° C.)”.

The record behind these values is patent US20240279220A1, “INDOLE COMPOUNDS AND METHODS OF USE” (Genzyme Corporation, priority 2021, published 2024).
